Entries after “also recorded” stand apart in the source; their conditions may differ. Like-named read-outs stand apart in the source and are kept apart here.
Legend:
[1] = test system: UACC-62 cells; test: In vitro anti-proliferation (CellTiter-Glo, 72 hr), UACC-62; format: cell-based
Description: (§1) Commercially available 8HQ and freshly synthesized G2-8HQ were prepared for in vitro anti-proliferative studies against the following cell lines with and without the presence of 10 μM Cu(+2): (1) A549: […]; (2) BT-549: epithelial cells from ductal tumor; (3) DU-145: human prostate cancer; (4) PANC-1: pancreatic cancer; (5) SU.86.86: a new adoptive pancreatic cell for immunotherapy studies; (6) RL: non-Hodgkin's lymphoma; (7) LnCAP, Prostate cancer cell line; (8) A431, a squamous cell carcinoma line; and (9) UACC-62 a malignant melanoma cell line.
(§2) With regard to the study protocol used, the objective was to conduct a study of the cytotoxicity of W1469 against several cancer cell lines. In the study protocol, preparations for the A549 (Lung) cell line screen are given as an example. The following materials were used: (1) FBS (2) RPMI-1640 medium supplemented with 10% FBS:’ and (3) A549 Cells. The four samples tested are referred to as Items 1-4 below and were placed at 4 °C upon arrival. These four samples were as follows: • Item 1: Tube A (W1469) (500 uM when FBS added) • Item 2: Tube B (W1469g) (1000 uM when FBS added) • Item 3: Tube C (W1469) • Item 4: Tube D (W1469g)
(§3) Add 50 μL of above 2× stocks to appropriate wells to expose appropriate cells to the final dilutions of samples. Add 50 μL media to media and cell control wells and 50 μL media mix to vehicle control wells. Cells are exposed for 72 hr. Following a 72 hr exposure to Sample, perform a CTG assay on all remaining plates.
(§4) At the end of the 72 hr exposure period, remove plates for CellTiter-Glo assay from 37 °C, 5% CO2 incubator and place on the bench at room temperature for 30 mins. Add 100 μL CellTiter-Glo reagent, mix for 2 mins, followed by a further 10 min incubation at room temperature. Record luminescence. Tables showing the resulting plate layouts are included below/
(§5) The other cancer cell lines tested gave similar results. […] Three additional cell lines were also studied and described more completely in Example 9 provided herein. These cell lines included cytotoxicity testing of WT1469 (G2-8HQ) against LnCAP a prostate cancer, A431 a squamous carcinoma cell line and UACC-62 a malignant melanoma cell line. All were complexed in situ with copper immediately prior to testing. The results from these additional cell lines and incorporated in Table 2 and Example 9.

[2] = test system: PANC-1 cells; test: In vitro anti-proliferation (CellTiter-Glo, 72 hr), PANC-1; format: cell-based
Description: as §1, §2, §3, §4

[3] = test system: SU.86.86 cells; test: In vitro anti-proliferation (CellTiter-Glo, 72 hr), SU.86.86; format: cell-based
Description: as §1, §2, §3, §4

[4] = Chemical stability; format: physicochemical
[5] = Complexation of copper; format: physicochemical
[6] = Solubility
[7] = test system: squamous cell carcinoma; test: Case study, topical W1469, squamous cell carcinoma (Individual 4); format: in vivo, human
Description: (§6) Topical gel containing 0.5 mg/ml W1469 in proprietary aqueous alcohol gel, applied initially once daily using a suitable topical applicator.
(§7) In general, the Treatment/Patient protocol used for the patient testing was as follows: • 1. Photograph the application site prior to starting the protocol. Note any changes in lesion size, color, etc. of treatment area. • 2. Remove a loaded syringe from the freezer, dry ice or refrigerator and allow to gradually warm to room temperature. • 3. Photograph the syringe each time prior to application. Note the color of the gel contained in the syringe. • 4. Lightly clean the skin surface with alcohol wipe. • 5. […] Let the liquid from the gel absorb into the site without disturbing. Apply once a day at the same time. • 6. Re-cap the syringe and store in the refrigerator until completely used. • 7. Repeat 1-6 each daily during application period. It is noted in this protocol that photographing the syringe used with each application period accomplishes two things.
Physician administered, variable treatment protocol, drug concentrations and vehicle carrier. A person with 2 mm ulcerative lesion (squamous cell carcinoma) to the post-auricular area of left side of the head. The lesion area had been biopsied and treated with cryotherapy one year prior. Lesion area had begun to reappear 3 months prior to this photo. After three days of once daily treatment, the same lesion was already reduced to approximately ½ of original size. […] Note: Subject's initial dosing schedule was once daily. […] Upon next visit (three days after initial dosing) […] dose was doubled while maintaining a once daily schedule. Over the next three days their lesion resolved completely and without any adverse reactions noted.

[8] = test system: LnCAP cells; test: In vitro anti-proliferation (CellTiter-Glo, 72 hr), LnCAP; format: cell-based
Description: as §1, §2, §3, §4, §5

[9] = test system: basal cell and squamous cell cancer; test: Case studies overview, topical W1469; format: in vivo, human
Description: as §6, §7
• 1. Toleration/toxicity • 2. Application methodology • 3. Any visual indications of efficacy • 4. Patient feedback Study Duration: Varied case by case. Generally, two weeks to two months

[10] = complexed with Cu in situ, * differences with or without excipient, suboptimal complexing, listed as W1469, read-out: IC50 (adjusted to MW of copper complex)
[11] = 1 and 0.5 μM, presence of Cu^+2 ions, wide standard deviation

With O=C(O)[C@H]1O[C@@H](Oc2ccc3cccc(O)c3n2)[C@H](O)[C@@H](O)[C@@H]1O [G2-8HQ, 8-Hydroxy-2-quinolinyl beta-D-glucopyranosiduronic acid] the IC50 ([1]; +Cu, complexed in situ with copper immediately prior to testing, not based on apo MW, read-out: IC50) was 170 µM, the IC50 ([1]; Homo sapiens, UACC-62, +Cu, complexed in situ with copper immediately prior to testing, not based on apo MW, read-out: IC50) was 154 µM and the IC50 ([1]; Homo sapiens, UACC-62, complexed with Cu in situ, * differences with or without excipient, suboptimal complexing, read-out: IC50 (adjusted to MW of copper complex)) was 152 µM. For the same compound, the IC50 [1, 10] was 167 µM, the cytotoxicity [2, 11] was “at least some of the screens reflected that all the cancer cells were killed at these concentrations; also recorded: in some % of the screens all the cancer cells were killed at these concentrations” and the IC50 ([2]; Homo sapiens, PANC-1, 72 h, −Cu, 72 hr) was > 500 µM. The cytotoxicity [3, 11] was “in a percentage of cases, all of the cancer cells were killed at concentrations between at 1 and 0.5 μM; also recorded: in some % of the screens all the cancer cells were killed at these concentrations”, the IC50 ([3]; +Cu (10 μM), 72 hr, G2-8HQ values based on MW of apo form (337), read-out: IC50) was 13 µM and the IC50 ([3]; Homo sapiens, SU.86.86, 72 h, +Cu (10 μM), 72 hr, G2-8HQ values based on MW of apo form (337), read-out: IC50) was 10 µM. For the same compound, the IC50 ([3]; Homo sapiens, SU.86.86, 72 h, −Cu, 72 hr, read-out: IC50) was > 500 µM, the IC50 ([3]; Homo sapiens, SU.86.86, complexed with Cu, multiplied by 337/776=0.43, column 3 duplicate of column 2, read-out: IC50 (adjusted to MW of copper complex)) was 4.3 µM and the IC50 ([3]; complexed with Cu, multiplied by 337/776=0.43, column 3 duplicate of column 2, listed as W1469, read-out: IC50 (adjusted to MW of copper complex)) was 5.6 µM. The stability ([4]; aqueous solutions, pH values lower than 8, or over time in organic solvents) was “less stable”, the stability ([4]; dissolving in DMSO (without copper)) was “yields over time the precipitated degradation product of the keto form of 2-8HQ” and the stability ([4]; neutral or physiological pH in the plasma) was “chemically stable”. For the same compound, the stability ([4]; pH of 5) was “degrade the compound almost immediately”, the Complexes w/copper ([5]; comparison Table 5) was “Yes” and the copper complexation ([5]; water or PBS (at neutral pH), without suitable excipient) was “will not readily complex Cu^+2”. For the same compound, the “Solubility of Cu Complex/aqueous” value ([6]; comparison Table 5) was “excellent”, the solubility ([6]; water / aqueous) was “highly aqueous soluble” and the solubility ([6]; water or PBS (at neutral pH)) was “highly soluble”. The “lesion size (fraction of original size)” value ([7]; Individual 4, after three days of once daily treatment) was “approximately ½”, the adverse reactions ([7]; Individual 4, once daily, dose doubled after three days) was “no adverse reactions” and the lesion resolution ([7]; Individual 4, regular treatment for one week) was “complete resolution of the patient's lesion”. The IC50 ([8]; +Cu, complexed in situ with copper immediately prior to testing, apo MW (337), read-out: IC50) was 154 µM, the IC50 ([8]; Homo sapiens, LNCaP, +Cu, complexed in situ with copper immediately prior to testing, apo MW (337), read-out: IC50) was 109 µM and the IC50 ([8]; Homo sapiens, LNCaP, complexed with Cu in situ, * differences with or without excipient, suboptimal complexing, read-out: IC50 (adjusted to MW of copper complex)) was 46.9 µM. For the same compound, the IC50 [8, 10] was 66.2 µM, the Side Effects ([9]; all 4 case studies) was “No side effects were noted” and the “appearance of skin surrounding the cancer lesion(s)” value ([9]; all 4 case studies) was “Marked improvements in general appearance of skin surrounding the cancer lesion(s)”. The cancer lesion size ([9]; all 4 case studies) was “Progressive reduction of cancer lesion size”, the dose dependency ([9]; all 4 case studies) was “higher concentrations work better” and the “effect on adjacent tissue” value ([9]; all 4 case studies) was “Doesn't inflame or injure adjacent tissue”. For the same compound, the “pain of treatment and application” value ([9]; all 4 case studies) was “not painful”, the “time to rapid elimination of pain and visible inflammation” value ([9]; all 4 case studies) was 2 to 5 days and the toxicity ([9]; topical gel 0.5 mg/ml, once daily initially) was “no toxicity was observed”.
